Experimental findings from PMC10073347 (Nature chemistry, 2023) are described below.

The target of this assay is T1, SeMet CtdP (Penicillium citrinum, UniProt Z9QVB9HE69).
T1 sequence (Z9QVB9HE69 1-348): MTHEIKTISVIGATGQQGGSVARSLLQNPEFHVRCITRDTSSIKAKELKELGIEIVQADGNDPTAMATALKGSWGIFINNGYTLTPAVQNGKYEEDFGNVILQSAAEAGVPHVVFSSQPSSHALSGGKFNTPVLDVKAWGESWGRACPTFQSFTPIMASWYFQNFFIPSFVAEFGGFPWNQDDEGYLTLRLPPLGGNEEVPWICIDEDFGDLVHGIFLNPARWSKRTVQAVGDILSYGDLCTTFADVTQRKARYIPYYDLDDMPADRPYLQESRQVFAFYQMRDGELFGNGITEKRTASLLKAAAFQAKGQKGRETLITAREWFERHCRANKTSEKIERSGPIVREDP
Put plainly: X-ray crystal structure, […] Å, SeMet SAD. It counts as binding. Particulars: bound in all four chains; product 10 in chains A, B, D.

With `NC(=O)c1ccc[n+]([C@@H]2O[C@H](COP(=O)(O)OP(=O)(O)OC[C@H]3O[C@@H](n4cnc5c(N)ncnc54)[C@H](OP(=O)(O)O)[C@@H]3O)[C@@H](O)[C@H]2O)c1` [NADP^+], the “X-ray crystal structure, 2.5 Å, SeMet SAD” value is recorded as “four chains (A-D) in the asymmetric unit, all in complex with NADP^+”.
